Laboratory results as given in patent US11339185B2, “Cyclic dinucleotides as anticancer agents” (Bristol-Myers Squibb Company, priority 2018, dated 2022).
Like-named read-outs stand apart in the source and are kept apart here.

Legend:
[1] = test system: THP1-Dual cells, IRF pathway (IRF3); assay: STING THP1 Reporter Assay, IRF pathway (secreted Lucia luciferase, QUANTI-Luc); format: cell-based; conditions: 10% human plasma, luciferase readout, 100% activation = 100 μM cGAMP, read-out: THP1 Reporter Assays EC50 (μM) IRF3
Excerpt: (§1) THP1-Dual™ cells were derived from the human THP-1 monocyte cell line by stable integration of two inducible reporter constructs. To this end, THP1-Dual™ cells allow the simultaneous study of the NF-κB pathway, by monitoring the activity of SEAP, and the IRF pathway by assessing the activity of a secreted luciferase (Lucia). Both reporter proteins are readily measurable in the cell culture supernatant when using QUANTI-Blue™, a SEAP detection reagent, and QUANTI-Luc™, a luciferase detection reagent.
(§2) THP1-Dual™ cells induce the activation of NF-κB in response to STING agonists. They also trigger the IRF pathway upon stimulation with STING agonists, such as cGAMP. Here, the THP-1-Dual cells were used to assess STING binders for function on the cellular level.
(§3) Serial dilutions of compounds in DMSO were added to low volume 384 well plates at 100 nl/well using an ECHO acoustic dispenser (Labcyte, model 550) to achieve final starting concentration of 100 μM in cell suspension. THP-1 Dual™ STING reporter cells (Invivogen, Dual cells cat #THPD-nfis) were added to the plates with compounds at 15,000 cells in 10 μL per well in RPMI media (Gibco, cat #11875) containing 10% human plasma in a low volume 384-well black wall clear bottom tissue culture plate (Corning, cat #3542) for SEAP assay and low volume solid white plate (Corning, cat #3826) for luciferase assay. One column of the plate was reserved for treatment with cGAMP at 100 μM for 100% activation calculation and one column for no treatment (DMSO only) for baseline activation. Plates were then incubated in 37 OC incubator at 5% CO2 for 20 hours.
(§4) In the SEAP assay, 5 μl of 2× QuantiBlue (Invivogen, cat #Rep-qb2) is added to 384 well black plates seeded with THP1 cells and incubated at 37° C. for 2 hours. Plates were read on the Envision (Perkin Elmer) at 620 nm wavelength (OD620). In the luciferase assay, 5 μl of Quantiluc (Invivogen, Rep-qlc2) is added to white 384 well plates seeded with THP1 cells and read at 5 minutes on the Envision (Perkin Elmer) using a luminescence protocol (RLU). For both cell lines, 100% activation was determined by value (RLU) of THP-1 Dual STING cells stimulated with 100 μM cGAMP (Invivogen, cat #TLRL-NACGA23-5).

[2] = test system: THP1-Dual cells, NF-κB pathway; assay: STING THP1 Reporter Assay, NF-κB pathway (SEAP, QUANTI-Blue); format: cell-based; conditions: 10% human plasma, SEAP readout (OD620), 100% activation = 100 μM cGAMP, read-out: THP1 Reporter Assays EC50 (μM) NFkB
Excerpt: as §1, §2, §3, §4

[3] = molecular target: T1, STING WT: His-TVMV-S-hSTING(155-341)-H232R (Homo sapiens, UniProt Q86WV6, H232R); assay: STING HTRF binding assay (time resolved FRET competition), STING WT; conditions: 20 nM His-tagged STING WT cytoplasmic domain, 200 nM fluorescein-labeled cGAMP analog probe, one hour; read-out: HTRF Binding Assays IC50 (μM) WT
T1 construct: STING WT: His-TVMV-S-hSTING(155-341)-H232R
Procedure: (§5) A time resolved FRET-based competition binding assay was used to assess test article binding to STING WT and STING AQ. His-tagged STING cytoplasmic domain (WT or AQ) at a concentration of 20 nM was incubated with 2.5 nM Tb-labeled anti-His antibody, test compound, and fluorescein-labeled cGAMP analog probe (BioLog cat. no. C195) at a concentration of 200 nM (STING WT) or 40 nM (STING AQ) in PBS containing 0.005% Tween-20 and 0.1% BSA for one hour. Fluorescence at 495 nm and 520 nm was measured using an EnVision microplate reader to quantify FRET between Tb-labeled anti-His antibody and fluorescein-labeled probe. Background was defined as the signal obtained in the absence of STING protein, and background subtracted FRET ratios were normalized to the maximum signal obtained in the absence of test compound. These values were converted to a percent inhibition. Percent inhibition was determined for test compounds at 11 concentrations. The IC50, defined as the concentration of competing test compound needed to reduce specific binding of the probe by 50%, was calculated using the 4 parameter logistic equation to fit the data

[4] = molecular target: T2, STING AQ: His-TVMV-S-hSTING(155-341)-G230A-R293Q (Homo sapiens, UniProt Q86WV6, G230A/H232R/R293Q); assay: STING HTRF binding assay (time resolved FRET competition), STING AQ; conditions: 20 nM His-tagged STING AQ cytoplasmic domain, 40 nM fluorescein-labeled cGAMP analog probe, one hour; read-out: HTRF Binding Assays IC50 (μM) AQ
T2 construct: STING AQ: His-TVMV-S-hSTING(155-341)-G230A-R293Q
Procedure: as §5

T1 sequence (Q86WV6 with tags, fused parts or gaps H232R): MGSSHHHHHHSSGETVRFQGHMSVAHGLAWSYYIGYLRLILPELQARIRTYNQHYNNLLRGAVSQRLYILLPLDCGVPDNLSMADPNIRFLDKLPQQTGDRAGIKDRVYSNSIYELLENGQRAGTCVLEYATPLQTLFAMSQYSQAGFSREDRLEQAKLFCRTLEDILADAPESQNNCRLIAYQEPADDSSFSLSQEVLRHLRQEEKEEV
T2 sequence (Q86WV6 with tags, fused parts or gaps G230A/H232R/R293Q): as the sequence (Q86WV6 with tags, fused parts or gaps H232R) above, with G99A, R162Q counted along it

SMILES | EC50 ([1]; 20 hours) [µM] | EC50 ([2]; 20 hours) [µM] | IC50 [3] [µM] | IC50 [4] [µM] | EC50 ([1]; Homo sapiens, THP1-Dual, 20 h) [µM] | EC50 ([2]; Homo sapiens, THP1-Dual, 20 h) [µM]
Nc1ncnc2c1ncn2[C@@H]1O[C@@H]2COP(=O)(S)OC[C@@H]3[C@@H](COP(=O)(S)O[C@H]2[C@H]1F)C[C@H]3n1cnc2c(O)n3ccnc3nc21 (single isomer, unassigned) [Example 1-1] | 41 | 54.6 | 0.19 | 0.01 | – | –
Nc1ncnc2c1ncn2[C@@H]1O[C@@H]2COP(=O)(S)OC[C@@H]3[C@@H](COP(=O)(S)O[C@H]2[C@H]1F)C[C@H]3n1cnc2c(=O)n3nnnc3[nH]c21 (single isomer, unassigned) [Example 23] | – | – | 4.96 | 0.07 | > 100 | 92.2
Nc1ncnc2c1ncn2[C@@H]1C[C@@H]2COP(=O)(S)O[C@@H]3[C@H](F)[C@@H](COP(=O)(S)OC[C@H]21)O[C@H]3n1cnc2c(=O)n3cc[nH]c3nc21 (single isomer, unassigned) [Example 6-1] | > 100 | > 100 | 6.31 | 0.18 | – | –
NC(=O)c1cc([C@@H]2C[C@@H]3COP(=O)(S)O[C@H]4[C@@H](F)[C@H](n5cnc6c5ncn5ccnc65)O[C@@H]4COP(=O)(S)OC[C@H]32)ccn1 (stereo partly drawn) [Example 19, 4-[(1R,6S,8R,9S,15R,17R,18R)-18-fluoro-17-{3H-imidazo[2,1-f]purin-3-yl}-3,12-dioxo-3,12-disulfanyl-2,4,11,13,16-pentaoxa-3λ^5,12λ^5-diphosphatricyclo[13.3.0.0^6,9]octa-decan-8-yl]pyridine-2-carboxamide] | – | – | 0.01 | 0.01 | 0.97 | 2.38
NC(=O)c1cc([C@@H]2C[C@@H]3COP(=O)(S)O[C@H]4[C@@H](F)[C@H](n5cnc6c(N)ncnc65)O[C@@H]4COP(=O)(S)OC[C@H]32)ccn1 (single isomer, unassigned) [Example 10] | > 100 | > 100 | 40.9 | 2.3 | – | –
O=P1(S)OC[C@@H]2[C@@H](COP(=O)(S)O[C@H]3[C@@H](F)[C@H](n4cnc5c4ncn4ccnc54)O[C@@H]3CO1)C[C@H]2n1cnc2c(Cl)ncnc21 (single isomer, unassigned) [Example 18-2] | > 100 | > 100 | > 100 | 35.7 | – | –
Nc1ncnc2c1ncn2[C@@H]1C[C@@H]2COP(=O)(O)O[C@H]3[C@@H](F)[C@H](n4cnc5c4ncn4ccnc54)O[C@@H]3COP(=O)(O)OC[C@H]21 [Example 16, (1R,6S,8R,9R,15R,17R,18R)-8-(6-amino-9H-purin-9-yl)-18-fluoro-3,12-dihydroxy-17-{3H-imidazo[2,1-f]purin-3-yl}-2,4,11,13,16-pentaoxa-3λ^5,12λ^5-diphosphatricyclo[13.3.0.0^6,9]octa-decane-3,12-dione] | – | – | 4.66 | 0.02 | 23.9 | 72.8
NC(=O)c1cc([C@@H]2C[C@@H]3COP(=O)(S)O[C@H]4[C@H](F)[C@H](n5cnc6c(N)ncnc65)O[C@@H]4COP(=O)(S)OC[C@H]32)ccn1 (single isomer, unassigned) [Example 11] | – | – | 52.5 | 10.1 | > 100 | > 100
O=P1(S)OC[C@@H]2[C@@H](COP(=O)(S)O[C@H]3[C@@H](F)[C@H](n4cnc5c4ncn4ccnc54)O[C@@H]3CO1)C[C@H]2n1cnc2c(Cl)ncnc21 (single isomer, unassigned) [Example 18-4] | > 100 | > 100 | 24.5 | 2.18 | – | –
NC(=O)c1cc([C@@H]2C[C@@H]3COP(=O)(S)O[C@H]4[C@@H](F)[C@H](n5cnc6c(N)ncnc65)O[C@@H]4COP(=O)(S)OC[C@H]32)ccn1 (single isomer, unassigned) [Example 9] | 18.4 | 23.5 | 1.41 | 0.02 | – | –
Nc1ncnc2c1ncn2[C@@H]1C[C@@H]2COP(=O)(S)O[C@H]3[C@@H](F)[C@H](n4cnc5c4ncn4ccnc54)O[C@@H]3COP(=O)(S)OC[C@H]21 (single isomer, unassigned) [Example 17-3] | 73.7 | 89.6 | 5.22 | 0.11 | – | –
Nc1ncnc2c1ncn2[C@@H]1O[C@@H]2COP(=O)(S)OC[C@@H]3[C@@H](COP(=O)(S)O[C@H]2[C@H]1F)C[C@H]3n1cnc2c(O)n3ccnc3nc21 (single isomer, unassigned) [Example 1-3] | > 100 | > 100 | 0.84 | 0.02 | – | –
NC(=O)c1cc([C@@H]2C[C@@H]3COP(O)(=S)O[C@H]4[C@@H](F)[C@H](n5cnc6c(N)ncnc65)O[C@@H]4COP(=O)(O)OCC32)ccn1 (single isomer, unassigned) [Example 14] | – | – | > 100 | 7.78 | > 100 | > 100
Nc1ncnc2c1ncn2[C@@H]1C[C@@H]2COP(=O)(S)O[C@H]3[C@@H](F)[C@H](n4cnc5c4ncn4ccnc54)O[C@@H]3COP(=O)(S)OC[C@H]21 (single isomer, unassigned) [Example 17-1] | – | – | > 100 | 3.55 | > 100 | > 100
Nc1ncnc2c1ncn2[C@@H]1C[C@@H]2COP(=O)(S)O[C@@H]3[C@H](F)[C@@H](COP(=O)(O)OC[C@H]21)O[C@H]3n1cnc2c(=O)n3ccnc3[nH]c21 (stereo partly drawn) [Example 7, 3-[(1S,6S,8R,9R,15R,17R,18R)-8-(6-amino-9H-purin-9-yl)-18-fluoro-3,12-dihydroxy-12-oxo-3-sulfanylidene-2,4,11,13,16-pentaoxa-3λ^5,12λ^5-diphosphatricyclo[13.2.1.0^6,9]octadecan-17-yl]-3H,5H,9H-imidazo[1,2-a]purin-9-one] | – | – | 0.12 | 0.002 | 3.01 | 11.5
NC(=O)c1cc([C@@H]2C[C@@H]3COP(=O)(S)OC[C@@H]4[C@@H](COP(=O)(S)OC[C@H]32)C[C@H]4n2cnc3c(N)ncnc32)ccn1 (single isomer, unassigned) [Example 15-2] | > 100 | – | > 100 | 73.5 | – | –
NC(=O)c1cc([C@@H]2O[C@@H]3COP(=O)(S)OC[C@@H]4[C@@H](COP(=O)(S)O[C@@H]2[C@@H]3O)C[C@H]4n2cnc3c(N)ncnc32)ccn1 (single isomer, unassigned) [Example 20-2] | > 100 | > 100 | > 100 | > 100 | – | –
Nc1ncnc2c1ncn2[C@@H]1O[C@@H]2COP(=O)(S)OC[C@@H]3[C@@H](COP(=O)(S)O[C@H]2[C@H]1F)C[C@H]3n1cnc2c(=O)[nH]cnc21 (single isomer, unassigned) [Example 22-2] | > 100 | > 100 | – | 0.02 | – | –
